Source: patent US12569430B2 (priority 2021, dated 2026)
Values after ≈ are worked out from the molar mass of the structure shown. Structures can show the parent of a compound that is named as a salt. Where two headings read alike, the source gives them in different places. Values belong to the compound of their own block, whether it stands above or below them.

Experiments:
[1] = cited from earlier work
[2] = Toxicokinetics after subcutaneous implant; type: in vivo, Yucatan minipigs; settings: single subcutaneous implant, 1 g NTX (Group 2) vs 1 g NTX with 10 mg TCA (Group 3)
[3] = Saturation solubility of naltrexone in different media; type: physicochemical; settings: thermodynamic from solid, read-out: Solubility of API
[4] = In vitro dissolution of pellets, USP dissolution apparatus II (paddle); settings: for Release Triamcinolone, %: n = 1
Experimental: The parameters used in the dissolution study are given below.
A USP dissolution apparatus II (paddle) (Agilent Technologies, Inc., Santa Clara, CA) was used for dissolution method parameters selection. For accelerated dissolution method development multiple parameters were evaluated: • 1). temperature of the dissolution media; • 2). initial wetting of the pellet (by adding detergent and organic solvent); • 3). the mixing speed; and • 4). the pH of the dissolution media used.
Water was used as the starting media. A sampling timepoint (at 66 or 90 hours) was used for initial dissolution parameter assessment.
The dissolution tests were performed in “sink” conditions where the amount of solvent was at least 3 times higher than the minimum amount of solvent required for dissolution.
Therefore, for the next step of the dissolution method development, 20% of ethanol was added to the dissolution media with a phosphate buffer.
Samples were taken at 8, 24, 48, 72 and 84 hours.

SMILES: O=C1CC[C@@]2(O)[C@H]3Cc4ccc(O)c5c4[C@@]2(CCN3CC2CC2)[C@H]1O5 [naltrexone hydrochloride]
solubility in EtOH [1]: < 1000 µg/mL

SMILES: O=C1CC[C@@]2(O)[C@H]3Cc4ccc(O)c5c4[C@@]2(CCN3CC2CC2)[C@H]1O5 [naltrexone, (4R,4aS,7aR,12bS)-3-(cyclopropylmethyl)-4a,9-dihydroxy-2,4,5,6,7a,13-hexahydro-1H-4,12-methanobenzofuro[3,2-e]isoquinolin-7-one]
Systemic exposure to NTX (Cmax and AUC) [2]: did not appear to be impacted
solubility ([3]; pH 5, aqueous buffer, Hanks' Balanced Salt solution pH5.0): 770 µg/mL
solubility ([3]; pH 5, aqueous buffer, PBS pH5.0 (1:5)): 5210 µg/mL (≈ 15.3 mM)
solubility ([3]; pH 5.5, aqueous buffer, PBS pH5.5 (1:5)): 3120 µg/mL (≈ 9.14 mM)
solubility ([3]; pH 5.5, aqueous with cosolvent or surfactant or cyclodextrin, 20% EtOH + 80% PBS pH5.5 (1:10)): 5730 µg/mL
solubility ([3]; pH 6, aqueous buffer, PBS pH6.0 (1:5)): 2910 µg/mL (≈ 8.52 mM)
solubility ([3]; pH 7.4, aqueous buffer, Hanks' Balanced Salt solution pH7.4): 670 µg/mL
solubility ([3]; pH 7.4, aqueous buffer, PBS pH7.4): 960 µg/mL (≈ 2.81 mM)
solubility ([3]; pH 8, aqueous buffer, Hanks' Balanced Salt solution pH8.0): 650 µg/mL
solubility ([3]; pH 8, aqueous buffer, PBS pH8.0): 750 µg/mL (≈ 2.2 mM)

Release of triamcinolone acetonide (TCA) from pellets ([4]; 10 mM Acetate buffer pH 3.8, 50 RPM at 37° C., 8 hrs): 24.63%
Release of triamcinolone acetonide (TCA) from pellets ([4]; 10 mM Acetate buffer pH 3.8, 50 RPM at 37° C., 24 hrs): 62.64%
Release of triamcinolone acetonide (TCA) from pellets ([4]; 10 mM Acetate buffer pH 3.8, 50 RPM at 37° C., 48 hrs): 79.58%
Release of triamcinolone acetonide (TCA) from pellets ([4]; 10 mM Acetate buffer pH 3.8, 50 RPM at 37° C., 72 hrs): 79.36%
Release of triamcinolone acetonide (TCA) from pellets ([4]; 10 mM Acetate buffer pH 5.0, 50 RPM at 37° C., 8 hrs): 17.27%
Release of triamcinolone acetonide (TCA) from pellets ([4]; 10 mM Acetate buffer pH 5.0, 50 RPM at 37° C., 24 hrs): 46.65%
Release of triamcinolone acetonide (TCA) from pellets ([4]; 10 mM Acetate buffer pH 5.0, 50 RPM at 37° C., 48 hrs): 69.50%
Release of triamcinolone acetonide (TCA) from pellets ([4]; 10 mM Acetate buffer pH 5.0, 50 RPM at 37° C., 72 hrs): 78.13%
Release of triamcinolone acetonide (TCA) from pellets ([4]; 10 mM Acetate buffer pH 5.8, 50 RPM, 8 hrs): 4.93%
Release of triamcinolone acetonide (TCA) from pellets ([4]; 10 mM Acetate buffer pH 5.8, 50 RPM, 24 hrs): 15.62%
Release of triamcinolone acetonide (TCA) from pellets ([4]; 10 mM Acetate buffer pH 5.8, 50 RPM, 48 hrs): 23.89%
Release of triamcinolone acetonide (TCA) from pellets ([4]; 10 mM Acetate buffer pH 5.8, 50 RPM, 72 hrs): 29.78%
Release Triamcinolone, % ([4]; 10 mM PBS pH 7.4, 50 RPM, 37° C., 66 hrs): 33.12%
Release of triamcinolone acetonide (TCA) from pellets ([4]; 10 mM phosphate buffer pH 5.0, 50 RPM at 37° C., 8 hrs): 15.30%
Release of triamcinolone acetonide (TCA) from pellets ([4]; 10 mM phosphate buffer pH 5.0, 50 RPM at 37° C., 24 hrs): 47.19%
Release of triamcinolone acetonide (TCA) from pellets ([4]; 10 mM phosphate buffer pH 5.0, 50 RPM at 37° C., 48 hrs): 75.78%
Release of triamcinolone acetonide (TCA) from pellets ([4]; 10 mM phosphate buffer pH 5.0, 50 RPM at 37° C., 72 hrs): 81.56%
Release of triamcinolone acetonide (TCA) from pellets ([4]; 10 mM phosphate buffer pH 6.0, 50 RPM at 37° C., 8 hrs): 12.51%
Release of triamcinolone acetonide (TCA) from pellets ([4]; 10 mM phosphate buffer pH 6.0, 50 RPM at 37° C., 24 hrs): 41.72%
Release of triamcinolone acetonide (TCA) from pellets ([4]; 10 mM phosphate buffer pH 6.0, 50 RPM at 37° C., 48 hrs): 74.31%
Release of triamcinolone acetonide (TCA) from pellets ([4]; 10 mM phosphate buffer pH 6.0, 50 RPM at 37° C., 72 hrs): 80.00%
Release of triamcinolone acetonide (TCA) from pellets ([4]; 10 mM phosphate buffer pH 7.4, 150 RPM at 37° C., 8 hrs): 16.66%
Release of triamcinolone acetonide (TCA) from pellets ([4]; 10 mM phosphate buffer pH 7.4, 150 RPM at 37° C., 24 hrs): 39.78%
Release of triamcinolone acetonide (TCA) from pellets ([4]; 10 mM phosphate buffer pH 7.4, 150 RPM at 37° C., 48 hrs): 52.83%
Release of triamcinolone acetonide (TCA) from pellets ([4]; 10 mM phosphate buffer pH 7.4, 150 RPM at 37° C., 72 hrs): 59.58%
Release of triamcinolone acetonide (TCA) from pellets ([4]; 10 mM phosphate buffer/20% EtOH pH 6.0, 50/75 RPM at 37° C., 8 hrs): 33.18%
Release of triamcinolone acetonide (TCA) from pellets ([4]; 10 mM phosphate buffer/20% EtOH pH 6.0, 50/75 RPM at 37° C., 24 hrs): 87.99%
Release of triamcinolone acetonide (TCA) from pellets ([4]; 10 mM phosphate buffer/20% EtOH pH 6.0, 50/75 RPM at 37° C., 48 hrs): 109.67%
Release of triamcinolone acetonide (TCA) from pellets ([4]; 10 mM phosphate buffer/20% EtOH pH 6.0, 50/75 RPM at 37° C., 72 hrs): 109.28%
Release of triamcinolone acetonide (TCA) from pellets ([4]; 10 mM phosphate buffer/20% EtOH pH 6.5, 50/75 RPM at 37° C., 8 hrs): 28.58%
Release of triamcinolone acetonide (TCA) from pellets ([4]; 10 mM phosphate buffer/20% EtOH pH 6.5, 50/75 RPM at 37° C., 24 hrs): 76.69%
Release of triamcinolone acetonide (TCA) from pellets ([4]; 10 mM phosphate buffer/20% EtOH pH 6.5, 50/75 RPM at 37° C., 48 hrs): 104.85%
Release of triamcinolone acetonide (TCA) from pellets ([4]; 10 mM phosphate buffer/20% EtOH pH 6.5, 50/75 RPM at 37° C., 72 hrs): 104.64%
Release of triamcinolone acetonide (TCA) from pellets ([4]; 10 mM phosphate buffer/20% EtOH pH 7.4, 50/75 RPM at 37° C., 8 hrs): 23.48%
Release of triamcinolone acetonide (TCA) from pellets ([4]; 10 mM phosphate buffer/20% EtOH pH 7.4, 50/75 RPM at 37° C., 24 hrs): 64.52%
Release of triamcinolone acetonide (TCA) from pellets ([4]; 10 mM phosphate buffer/20% EtOH pH 7.4, 50/75 RPM at 37° C., 48 hrs): 98.10%
Release of triamcinolone acetonide (TCA) from pellets ([4]; 10 mM phosphate buffer/20% EtOH pH 7.4, 50/75 RPM at 37° C., 72 hrs): 107.29%
Release Triamcinolone, % ([4]; 20 mM Acetate Buffer pH 3.8, 50 RPM, 37° C., 66 hrs): 83.52%
Release Triamcinolone, % ([4]; 0.05N HCl, pH 1, 50 RPM, 37° C., 66 hrs): 85.59%
Release Triamcinolone, % ([4]; 0.1% SLS in Water, 50 RPM, 37° C., 66 hrs): 39.09%
Release Triamcinolone, % ([4]; 20% EtOH, 80% Water, 50 RPM, 37° C., 90 hrs): 61.77%
Release Triamcinolone, % ([4]; Water, 50 RPM, 37° C., 90 hrs): 31.50%
Release Triamcinolone, % ([4]; Water, 60 RPM, 60° C., 66 hrs): 38.63%
Release Triamcinolone, % ([4]; Water, 150 RPM, 37° C., 66 hrs): 33.47%
SMILES: CC1(C)O[C@@H]2C[C@H]3[C@@H]4CCC5=CC(=O)C=C[C@]5(C)[C@@]4(F)[C@@H](O)C[C@]3(C)[C@]2(C(=O)CO)O1 [triamcinolone acetonide (TCA), triamcinolone acetonide]
